# Measured values taken from ChEMBL document CHEMBL1151543, “Application of the trimethyl lock1 to Ganciclovir, a pro-prodrug with increased oral bioavailability” (Bioorg Med Chem Lett, 1996).
# Assay: Oral bioavailability in rat
# Assay type: ADME, organism-based
# Settings: in vivo
row,bioavailability,SMILES
1,0%,Cc1cc(C)c(C(C)(C)CC(=O)OCC(CO)OCn2cnc3c(O)nc(N)nc32)c(OCc2ccccc2)c1 (stereo not drawn)
2,15.6%,CC(=O)Oc1cc(C)cc(C)c1C(C)(C)CC(=O)OCC(CO)OCn1cnc2c(O)nc(N)nc21 (stereo not drawn)
3,3.6%,Nc1nc(O)c2ncn(COC(CO)CO)c2n1 [GANCICLOVIR]
